Where a name gives a salt, the structure may show the parent alone.
Each molecule was assayed against T1, human A3AR (Homo sapiens, UniProt P0DMS8) (assay: LOPAC library primary screen: single concentration (10 μM) inhibition of 25 nM CA200645 binding, PHERAstar FS). Conditions: not given.
T1 construct: expressed in transfected cells
T1 sequence (P0DMS8 1-318): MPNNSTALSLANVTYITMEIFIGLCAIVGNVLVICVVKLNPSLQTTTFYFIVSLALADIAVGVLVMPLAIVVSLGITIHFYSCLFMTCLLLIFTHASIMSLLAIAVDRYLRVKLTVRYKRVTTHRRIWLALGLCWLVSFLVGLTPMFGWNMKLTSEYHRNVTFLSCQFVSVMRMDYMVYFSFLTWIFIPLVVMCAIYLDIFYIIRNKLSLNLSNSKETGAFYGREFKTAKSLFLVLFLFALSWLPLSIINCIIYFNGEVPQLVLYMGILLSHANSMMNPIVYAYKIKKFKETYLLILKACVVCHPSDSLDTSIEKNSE

Structure (SMILES)	% 25 nM CA200645 binding [%]
Cc1scc2c1N(C(=O)CN1CCN(C)CC1)c1ccccc1NC2=O [Telenzepine dihydrochloride]	107.0 ± 15.2
CC(C)(C)NCC(O)c1cc(O)cc(O)c1.CC(C)(C)NCC(O)c1cc(O)cc(O)c1.O=S(=O)(O)O (stereo not shown) [Terbutaline hemisulfate]	102.8 ± 10.1
CC(C)(C)c1ccc(C(O)CCCN2CCC(C(O)(c3ccccc3)c3ccccc3)CC2)cc1 (stereo not shown) [Terfenadine]	101.9 ± 5.3
COc1cc2c(cc1OC)C1CC(=O)C(CC(C)C)CN1CC2 (stereo not shown) [Tetrabenazine]	91.3 ± 18.4
CCCCNc1ccc(C(=O)OCCN(C)C)cc1 [Tetracaine hydrochloride]	85.8 ± 26.7
CC[N+](CC)(CC)CC [Tetraethylammonium chloride]	94.7 ± 8.6
CCN(CC)C(=S)SSC(=S)N(CC)CC [Tetraethylthiuram disulfide]	88.1 ± 9.2
c1ccc2c(c1)CCCC2C1=NCCN1 (stereo not shown) [Tetrahydrozoline hydrochloride]	98.2 ± 6.4
c1ccc(C2CN3CCSC3=N2)cc1 (stereo not shown) [Tetramisole hydrochloride]	95.5 ± 22.8
C/C=C(/C)C(=O)O[C@H]1C(C)=C2[C@H]([C@@H]1OC(=O)CCCCCCC)[C@@](C)(OC(C)=O)C[C@H](OC(=O)CCC)[C@@]1(O)[C@H]2OC(=O)[C@@]1(C)O [Thapsigargin]	65.1 ± 10.7
Cn1cnc2c1c(=O)[nH]c(=O)n2C [Theobromine]	101.7 ± 4.5
NC(=S)c1ccc[n+]([C@@H]2O[C@@H](COP(=O)([O-])OP(=O)(O)OC[C@H]3O[C@@H](n4cnc5c(N)ncnc54)C(OP(=O)([O-])O)[C@H]3O)C(O)C2O)c1.[Na+] (stereo partly shown) [Thio-NADP sodium]	101.4 ± 10.4
S=C(NC1CCCCC1)N1CCC(c2cnc[nH]2)CC1 [Thioperamide maleate]	99.7 ± 10.4
CSc1ccc2c(c1)N(CCC1CCCCN1C)c1ccccc1S2 (stereo not shown) [Thioridazine hydrochloride]	102.5 ± 9.6
CCN(CC)CCNC(=O)c1cc(S(C)(=O)=O)ccc1OC [Tiapride hydrochloride]	98.9 ± 15.2
Clc1ccc2nsnc2c1NC1=NCCN1 [Tizanidine hydrochloride]	107.2 ± 6.1
Cc1cccc(C)c1NC(=O)C(C)N (stereo not shown) [Tocainide hydrochloride]	102.0 ± 15.0
Cc1ccc(S(=O)(=O)NC(=O)NN2CCCCCC2)cc1 [Tolazamide]	109.2 ± 9.0
CCCCNC(=O)NS(=O)(=O)c1ccc(C)cc1 [Tolbutamide]	101.8 ± 7.4
CNCC[C@@H](Oc1ccccc1C)c1ccccc1 [Tomoxetine]	97.5 ± 8.3
CC[C@@]1(O)C(=O)OCc2c1cc1n(c2=O)Cc2cc3c(CN(C)C)c(O)ccc3nc2-1.Cl.O [Topotecan hydrochloride hydrate]	102.0 ± 7.8

Structure (SMILES)	% 25 nM CA200645 binding [%]
CCOC(=O)[C@H](CCc1ccccc1)N[C@@H](C)C(=O)N1[C@H](C(=O)O)C[C@H]2CCCC[C@@H]21 [Trandolapril]	99.7 ± 12.5
COc1ccc(/C=C/C(=O)Nc2ccccc2C(=O)O)cc1OC [Tranilast]	95.7 ± 1.4
N[C@@H]1C[C@H]1c1ccccc1 [Tranylcypromine hydrochloride]	100.1 ± 11.2
O=c1n(CCCN2CCN(c3cccc(Cl)c3)CC2)nc2ccccn12 [Trazodone hydrochloride]	104.7 ± 11.3
C[C@]12C=CC(=O)C=C1CC[C@H]1[C@@H]3C[C@@H](O)[C@](O)(C(=O)CO)[C@@]3(C)C[C@H](O)[C@@]12F [Triamcinolone]	95.9 ± 21.3
Nc1nc(N)c2nc(-c3ccccc3)c(N)nc2n1 [Triamterene]	95.3 ± 10.4
O=C(CCCN1CCC(O)(c2cccc(C(F)(F)F)c2)CC1)c1ccc(F)cc1 [Trifluperidol hydrochloride]	102.8 ± 9.3
CN(C)CCCN1c2ccccc2Sc2ccc(C(F)(F)F)cc21 [Triflupromazine hydrochloride]	99.0 ± 16.0
OC(CCN1CCCCC1)(c1ccccc1)C1CCCCC1 (stereo not shown) [Trihexyphenidyl hydrochloride]	99.4 ± 5.7
Cc1ccc(/C(=C\CN2CCCC2)c2ccccn2)cc1.Cl [Triprolidine hydrochloride]	90.2 ± 0.5
N[C@@H]1[C@H]2CN(c3nc4c(cc3F)c(=O)c(C(=O)O)cn4-c3ccc(F)cc3F)C[C@@H]12 [Trovafloxacin mesylate]	94.4 ± 17.2
NCCc1c[nH]c2ccccc12 [Tryptamine hydrochloride]	98.8 ± 5.7
CC(C)(C)NCC(O)c1ccccc1Cl (stereo not shown) [Tulobuterol hydrochloride]	99.9 ± 4.7
CC(C)(C)c1cc(C=C(C#N)C#N)cc(C(C)(C)C)c1O [Tyrphostin A9]	93.2 ± 14.5
N#CC(C#N)=C(N)/C(C#N)=C/c1ccc(O)cc1 [Tyrphostin AG 112]	102.8 ± 4.7
N#C/C(=C\c1ccc(O)c(O)c1)C(=O)Nc1ccccc1 [Tyrphostin AG 494]	91.5 ± 7.4
N#C/C(=C\c1ccc(O)c(O)c1)C(=O)c1ccc(O)c(O)c1 [Tyrphostin AG 538]	90.2 ± 14.0
CC(C)(C)c1cc(/C=C(\C#N)C(N)=S)cc(C(C)(C)C)c1O [Tyrphostin AG 879]	57.5 ± 23.0
COc1cc2ncnc(Nc3cccc(Cl)c3)c2cc1OC [Tyrphostin AG 1478]	90.3 ± 8.9
N#CC(=C(/N)Sc1ccccc1N)/C(C#N)=C(/N)Sc1ccccc1N [U0126]	97.2 ± 19.0

Same assay, conditions: % of control wells (1% DMSO and 25 nM CA200645); compounds at 10 µM; […]; mean ± SD, three experiments in duplicate

Structure (SMILES)	% 25 nM CA200645 binding [%]
CN1CCN(CCCN2c3ccccc3Sc3ccc(C(F)(F)F)cc32)CC1 [Trifluoperazine dihydrochloride]	97.1 ± 25.1

Same assay, conditions: % of control wells (1% DMSO and 25 nM CA200645); compounds at 10 µM; whole live cells expressing the A3AR; mean ± SD, three experiments in duplicate

Structure (SMILES)	% 25 nM CA200645 binding [%]
C=C/C(C)=C/[C@@]1(C)SC(=O)C(C)=C1O [Thiolactomycin]	98.5 ± 7.2
CCCCNc1c(C(=O)OCC)c(C)nc2c1cnn2CC [Tracazolate]	98.9 ± 4.3
COc1cc2c(cc1OC)-c1c/c(=N\c3c(C)cc(C)cc3C)n(C)c(=O)n1CC2 [Trequinsin hydrochloride]	88.3 ± 40.0
N#CC(C#N)=Cc1ccc(O)c(O)c1 [Tyrphostin 23]	84.9 ± 6.4

Same assay, conditions: compounds tested at 10 µM; % of control wells (1% DMSO and 25 nM CA200645); whole live cells expressing the A3AR; mean ± SD, three experiments in duplicate

Structure (SMILES)	% 25 nM CA200645 binding [%]
NCCS(=O)(=O)O [Taurine]	106.8 ± 10.4
CCCCCCCCCCCCCCSCC(=O)O [Tetradecylthioacetic acid]	101.3 ± 12.1
N#CC(C#N)=C(N)/C(C#N)=C/c1cc(O)c(O)c(O)c1 [Tyrphostin 51]	94.9 ± 2.9

Source: PMC5733478, “A Non-imaging High Throughput Approach to Chemical Library Screening at the Unmodified Adenosine-A3 Receptor in Living Cells” (Frontiers in Pharmacology, 2017)
